Experiments:
[1] = Metabolic stability in pooled human liver microsomes
Description: A master solution was prepared according to the following table.
40 μL of 10 mM NADPH solution was added to each well. The final concentrations of NADPH was 1 mM. The mixture was pre-warmed at 37° C. for 5 minutes. The negative control samples were prepared by replacing NADPH solutions with 40 μL of ultra-pure H2O. The negative control was used to exclude the misleading factor that resulted from instability of chemical itself. Samples with NADPH were prepared in duplicate. Negative controls were prepared in singlet.
The reaction was started with the addition of 4 μL of 200 μM control compound or test compound solutions. […] Samples were centrifuged at 3, 220 g for 40 minutes. Aliquot of 90 μL of the supernatant was mixed with 90 μL of ultra-pure H2O and then used for LC-MS/MS analysis.
For metabolite standard samples: 1 μL of 400 μM working solution was added to 89 μL master solution following by adding 400 μL of cold acetonitrile with internal standard (IS) (100 nM alprazolam, 200 nM Imipramine, 200 nM labetalol and 2 μM ketoprofen). Then 10 μL of 10 mM NADPH solution or ultra-pure H2O was added to the mixture. Samples were centrifuged at 3,220 g for 40 minutes to precipitate protein. Aliquots of 90 μL supernatant diluted by 90 μL of water was used for LC-MS/MS analysis.

hERG = hERG (Homo sapiens, UniProt Q12809); assay: hERG safety evaluation by manual Patch-Clamp system; assay type: cell-based
Sequence of hERG (Q12809 whole entry): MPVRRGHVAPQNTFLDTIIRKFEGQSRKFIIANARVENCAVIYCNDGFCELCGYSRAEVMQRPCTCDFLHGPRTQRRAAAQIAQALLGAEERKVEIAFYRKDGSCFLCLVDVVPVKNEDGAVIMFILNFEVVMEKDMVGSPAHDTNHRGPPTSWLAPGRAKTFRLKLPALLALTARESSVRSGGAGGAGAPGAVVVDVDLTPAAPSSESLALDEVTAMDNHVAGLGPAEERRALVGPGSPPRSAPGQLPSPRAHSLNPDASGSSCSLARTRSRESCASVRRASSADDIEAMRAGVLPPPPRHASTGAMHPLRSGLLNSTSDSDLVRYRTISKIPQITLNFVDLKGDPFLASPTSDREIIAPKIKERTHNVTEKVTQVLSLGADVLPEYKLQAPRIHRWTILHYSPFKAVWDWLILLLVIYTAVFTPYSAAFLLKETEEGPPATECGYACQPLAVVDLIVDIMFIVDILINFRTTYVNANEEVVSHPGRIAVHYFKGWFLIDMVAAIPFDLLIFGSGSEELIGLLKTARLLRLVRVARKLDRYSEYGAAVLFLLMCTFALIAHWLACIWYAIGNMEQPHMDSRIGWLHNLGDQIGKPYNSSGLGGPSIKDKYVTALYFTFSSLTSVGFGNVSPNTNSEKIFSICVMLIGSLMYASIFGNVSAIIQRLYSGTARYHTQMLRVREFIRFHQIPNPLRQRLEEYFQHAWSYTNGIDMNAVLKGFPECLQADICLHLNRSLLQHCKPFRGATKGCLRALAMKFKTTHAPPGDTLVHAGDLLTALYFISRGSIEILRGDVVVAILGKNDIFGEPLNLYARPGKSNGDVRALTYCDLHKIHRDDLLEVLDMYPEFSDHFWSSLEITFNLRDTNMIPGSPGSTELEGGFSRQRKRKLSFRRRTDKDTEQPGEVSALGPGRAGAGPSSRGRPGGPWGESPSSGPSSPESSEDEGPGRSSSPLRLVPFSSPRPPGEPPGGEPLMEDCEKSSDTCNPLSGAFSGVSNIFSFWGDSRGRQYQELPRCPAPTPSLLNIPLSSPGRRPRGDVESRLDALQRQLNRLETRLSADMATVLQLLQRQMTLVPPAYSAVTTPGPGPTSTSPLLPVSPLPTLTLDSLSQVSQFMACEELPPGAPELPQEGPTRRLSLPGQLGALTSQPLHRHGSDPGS
Description: Cell lines and cell culture: hERG stably expressed HEK 293 cell line (Cat #K1236) was purchased from Invitrogen. The cells are cultured in 85% DMEM, 10% dialyzed FBS, 0.1 mM NEAA, 25 mM HEPES, 100 U/mL Penicillin-Streptomycin, 5 μg/mL Blasticidin and 400 μg/mL Geneticin. Cells are split using TrypLE™ Express about three times a week, and maintained between ˜40% to ˜80% confluence. Before the assay, the cells were onto the coverslips at 5×10^5 cells/per 6 cm cell culture dish and induced with doxycycline at 1 μg/mL for 48 hours.
[…]; 2) Intracellular solution (in mM): 140 KCl, 2 MgCl2, 10 EGTA, 10 HEPES and 5 MgATP (pH adjusted to 7.35 with KOH).
Experimental procedure: 1) Remove the coverslip from the cell culture dish and place it on the microscope stage in bath chamber; 2) Locate a desirable cell using the ×10 objective. Locate the tip of the electrode under the microscope using the ×10 objective by focusing above the plane of the cells. […]
Data analysis: Data that met the above criteria for hERG current quality were further analyzed as the following steps: 1) Percent hERG current inhibition was calculated using the following equation; 2) The dose response curve of test compounds was plotted with percentage of hERG current inhibition against the concentration of test compounds using Graphpad Prism 8.0, and fit to a sigmoid dose-response curve with a variable slope.

With C[C@@H]1Cc2cc(C(N)=O)cnc2N1 [Compound 11, (2R)-2-methyl-2,3-dihydro-1H-pyrrolo[2,3-b]pyridine-5-carboxamide] the “Remaining (%) at 60 minutes” value ([1]; Human liver microsomes) was 97.33%, the CLint scaled at 2 μM ([1]; human, microsomes) was < 6.79 mL/min/kg and the half-life at 2 μM ([1]; human, microsomes) was > 4.26 h. For the same molecule, the microsomal CLint at 2 μM ([1]; human, microsomes) was < 5.42 µL/min/mg, the inhibition at 5 min, 30 µM (hERG; human, HEK293 cells stably expressing hERG, pH 7.35, at 30 μM) was 15% and the IC50 (hERG; manual Patch-Clamp, hERG stably expressed HEK 293 cell line) was > 30 µM.
